The values below come from patent publication US8496974B2, “Method for preparing a composition comprising a compound mixture and a carrier agent” (Oy Granula AB Ltd, priority 2008, dated 2013).

For one series, the system named is human keratinocyte cells. The series is classed as cell-based. Conditions: 24 h incubation, total protein quantity.
The nature of series [1]: Antioxidative capacity: inhibition of the peroxidation of lipids. The series is classed as biochemical. Conditions: pure polyphenols isolated from wood materials. The text has this: In Tables 4A, 4B, 4C and 4D, there are represented antioxidative and free radical capturing effects of pure polyphenolic compounds and of unpurified polyphenolic compounds containing raw extracts obtained from wood bark and stem knotwood.

The nature of series [2]: Peroxide radicals capturing capacity. The settings on record: pure polyphenols isolated from wood material. The series is classed as biochemical. The text has this: Tables 4C and 4D further represent the free radicals capturing capacity of certain pure polyphenols and unpurified polyphenol extracts with respect to peroxide radicals.
For series [3] the following is noted: pure polyphenols; footnote 1: Willför et al., J. Agric. Food. Chem, 51, 26 (2003); cited from earlier work.
The conditions of series [4]: pure polyphenols; footnote 1: Willför et al., J. Agric. Food. Chem., 51, 7600-7606 (2003); cited from earlier work.

Like-named read-outs stand apart in the source and are kept apart here.

For `Cc1cc(C(C)(C)C)c(O)c(C(C)(C)C)c1` [BTH, butylated hydroxytoluene], the “EC20 ppm 24 h (limit value by which 20% of the cultivated cells died)” value with human keratinocyte cells is on record as 5.50 ppm.

On to `COc1cc([C@H]2c3cc(O)c(OC)cc3C[C@@H](CO)[C@@H]2CO)ccc1O` [Cyclolariciresinol], for which the “EC50 μg/L, concentration which inhibits 50% of the peroxidation of the lipids” value in series [1] was found to be 17 µg/L. In series [2], the “capturing capacity mmol/g (peroxide radicals)” value (“capturing capacity mmol/g” for short) was 12 mmol/g.

With `O=C1c2c(O)cc(O)cc2O[C@H](c2ccc(O)cc2)[C@H]1O` [Dihydrokaempferol], in series [1], the “EC50 μg/L, concentration which inhibits 50% of the peroxidation of the lipids” value amounted to 488 µg/L. For the same compound, the “capturing capacity mmol/g” value in series [2] is recorded as 0.78 mmol/g.

As for `COc1cc(C[C@H]2C(=O)OC[C@@H]2[C@H](O)c2ccc(O)c(OC)c2)ccc1O` [Hydroxymatairesinol], the “EC50 μg/L, concentration which inhibits 50% of the peroxidation of the lipids” value in series [3] was 58 µg/L. In addition, in series [4], the “capturing capacity mmol/g” value was 5.6 mmol/g.

With `COc1cc(C[C@H]2CO[C@H](c3ccc(O)c(OC)c3)[C@H]2CO)ccc1O` [Lariciresinol], the “EC50 μg/L, concentration which inhibits 50% of the peroxidation of the lipids” value in series [3] was 126 µg/L. Moreover, in series [4], the “capturing capacity mmol/g” value was 2.7 mmol/g.

In the case of `COc1cc(C[C@H]2COC(=O)[C@@H]2Cc2ccc(O)c(OC)c2)ccc1O` [Matairesinol], the “EC50 μg/L, concentration which inhibits 50% of the peroxidation of the lipids” value in series [3] was 99 µg/L. In addition, the “capturing capacity mmol/g” value in series [4] is 2.9 mmol/g.

For `Oc1ccc([C@H]2Oc3c(ccc(O)c3O)[C@@H](O)[C@H]2O)cc1O` [Melacasidine], the “EC50 μg/L, concentration which inhibits 50% of the peroxidation of the lipids” value in series [1] is 36 µg/L. Also, in series [2], the “capturing capacity mmol/g” value is 20 mmol/g.

With `COc1cc(C[C@H]2COC(=O)[C@]2(O)Cc2ccc(O)c(OC)c2)ccc1O` [Nortrachelogenin], in series [3], the “EC50 μg/L, concentration which inhibits 50% of the peroxidation of the lipids” value was 53 µg/L. Further, the “capturing capacity mmol/g” value in series [4] is reported as 5.9 mmol/g.

In the case of `O=C1C[C@@H](c2ccccc2)Oc2cc(O)cc(O)c21` [Pinosembrin], the “EC50 μg/L, concentration which inhibits 50% of the peroxidation of the lipids” value in series [1] is 1135 µg/L. For the same compound, in series [2], the “capturing capacity mmol/g” value was found to be 0.49 mmol/g.

`Oc1cc(O)cc(/C=C/c2ccccc2)c1` [Pinosylvin]: the “EC50 μg/L, concentration which inhibits 50% of the peroxidation of the lipids” value in series [1] came to 50 µg/L. In series [2], the “capturing capacity mmol/g” value turned out to be 0.78 mmol/g.

Turning to `COc1cc(C[C@@H](CO)[C@H](CO)Cc2ccc(O)c(OC)c2)ccc1O` [Secoisolariciresinol], in series [3], the “EC50 μg/L, concentration which inhibits 50% of the peroxidation of the lipids” value is 37 µg/L. Moreover, in series [4], the “capturing capacity mmol/g” value is 8.5 mmol/g.

For the compound `O=C1c2c(O)cc(O)cc2O[C@H](c2ccc(O)c(O)c2)[C@H]1O` [Taxifolin], the “EC50 μg/L, concentration which inhibits 50% of the peroxidation of the lipids” value in series [3] was 46 µg/L. Besides, in series [4], the “capturing capacity mmol/g” value was 16 mmol/g.

Take `Oc1ccc([C@H]2Oc3c(ccc(O)c3O)[C@@H](O)[C@H]2O)cc1` [Teracasidine]: the “EC50 μg/L, concentration which inhibits 50% of the peroxidation of the lipids” value in series [1] was 50 µg/L. The “capturing capacity mmol/g” value in series [2] came to 7.8 mmol/g.

Regarding Pinoresinol, in series [1], the “EC50 μg/L, concentration which inhibits 50% of the peroxidation of the lipids” value stood at 20 µg/L. For the same compound, the “capturing capacity mmol/g” value in series [2] came to 7.8 mmol/g.
